Measurements taken from ChEMBL document CHEMBL1909046, “DrugMatrix in vitro pharmacology data”.

Legend:
[1] = target: Tyrosine-protein kinase Fyn (Homo sapiens, UniProt P06241); assay: biochemical; format: cell-based, Insect cells;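 further: enzymatic inhibition of Fyn kinase activity measured with Poly(Glu:Tyr) as the phosphorylation substrate; in other assays of this panel Not Active means under 50% inhibition at 10 µM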
[2] = target: Melanocortin receptor 3 (Homo sapiens, UniProt P41968); format: cell membranes, HEK293, Membrane; conditions: hek293; further: in other assays of this panel Not Active means under 50% inhibition at 10 µM
Sequence of Melanocortin receptor 3 (P41968 whole entry): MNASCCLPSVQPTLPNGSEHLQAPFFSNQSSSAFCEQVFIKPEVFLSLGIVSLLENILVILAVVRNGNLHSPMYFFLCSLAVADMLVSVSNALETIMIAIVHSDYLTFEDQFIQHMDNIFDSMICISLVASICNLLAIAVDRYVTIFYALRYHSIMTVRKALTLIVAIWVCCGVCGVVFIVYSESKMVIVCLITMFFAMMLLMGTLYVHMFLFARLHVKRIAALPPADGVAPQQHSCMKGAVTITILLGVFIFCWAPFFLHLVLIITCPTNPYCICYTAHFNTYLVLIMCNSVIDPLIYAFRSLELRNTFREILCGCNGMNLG

[3] = DRUGMATRIX: beta-Lactamase enzyme inhibition (substrate: Nitrocefin); parameters: species or system Bacillus cereus; conditions: Not Active = under 50% inhibition at 10 µM
[4] = target: Melanocortin receptor 4 (Homo sapiens, UniProt P32245); format: cell membranes, HEK293, Membrane; conditions: hek293; further: in other assays of this panel Not Active means under 50% inhibition at 10 µM
Sequence of Melanocortin receptor 4 (P32245 whole entry): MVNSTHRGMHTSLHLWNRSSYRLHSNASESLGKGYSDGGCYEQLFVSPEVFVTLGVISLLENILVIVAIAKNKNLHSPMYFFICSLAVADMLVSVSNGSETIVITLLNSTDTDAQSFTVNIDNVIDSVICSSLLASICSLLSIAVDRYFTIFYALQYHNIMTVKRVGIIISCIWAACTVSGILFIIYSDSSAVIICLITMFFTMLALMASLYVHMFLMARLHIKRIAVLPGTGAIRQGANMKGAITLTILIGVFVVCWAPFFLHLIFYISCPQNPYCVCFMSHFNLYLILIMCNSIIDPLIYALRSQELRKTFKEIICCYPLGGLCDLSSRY

[5] = target: Cytochrome P450 2C19 (Homo sapiens, UniProt P33261); conditions: bti-tn-5b1-4; further: in other assays of this panel Not Active means under 50% inhibition at 10 µM
Sequence of Cytochrome P450 2C19 (P33261 whole entry): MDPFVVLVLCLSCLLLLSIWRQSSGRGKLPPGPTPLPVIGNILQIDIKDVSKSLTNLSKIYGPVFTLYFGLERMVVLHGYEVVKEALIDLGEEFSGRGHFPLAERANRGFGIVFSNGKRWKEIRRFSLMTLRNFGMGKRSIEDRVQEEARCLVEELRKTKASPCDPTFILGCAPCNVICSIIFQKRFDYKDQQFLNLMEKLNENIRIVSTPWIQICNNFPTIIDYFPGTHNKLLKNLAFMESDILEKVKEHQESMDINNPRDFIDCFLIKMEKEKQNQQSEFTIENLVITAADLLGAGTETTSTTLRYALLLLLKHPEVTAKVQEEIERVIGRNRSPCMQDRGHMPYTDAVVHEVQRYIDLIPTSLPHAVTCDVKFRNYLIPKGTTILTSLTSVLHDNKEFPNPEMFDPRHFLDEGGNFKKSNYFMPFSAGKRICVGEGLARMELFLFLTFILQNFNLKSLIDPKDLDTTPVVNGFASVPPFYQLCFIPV

[6] = target: Cannabinoid receptor 1 (Homo sapiens, UniProt P21554); format: cell membranes, Chem-1, Membrane; conditions: chem-1; further: in other assays of this panel Not Active means under 50% inhibition at 10 µM
Sequence of Cannabinoid receptor 1 (P21554 whole entry): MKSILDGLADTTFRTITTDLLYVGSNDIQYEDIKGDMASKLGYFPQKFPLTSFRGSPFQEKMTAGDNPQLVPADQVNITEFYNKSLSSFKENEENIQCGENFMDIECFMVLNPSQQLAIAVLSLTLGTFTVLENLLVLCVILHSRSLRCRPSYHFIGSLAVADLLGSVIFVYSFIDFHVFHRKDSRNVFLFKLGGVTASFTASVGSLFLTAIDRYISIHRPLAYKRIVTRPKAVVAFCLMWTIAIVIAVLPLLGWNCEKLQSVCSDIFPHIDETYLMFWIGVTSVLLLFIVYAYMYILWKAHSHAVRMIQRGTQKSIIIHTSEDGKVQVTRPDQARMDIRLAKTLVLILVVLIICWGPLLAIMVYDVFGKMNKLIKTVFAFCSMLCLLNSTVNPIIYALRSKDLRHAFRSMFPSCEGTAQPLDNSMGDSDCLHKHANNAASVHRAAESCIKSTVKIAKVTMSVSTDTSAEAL

[7] = target: Cytochrome P450 3A4 (Homo sapiens, UniProt P08684); conditions: bti-tn-5b1-4; further: in other assays of this panel Not Active means under 50% inhibition at 10 µM
Sequence of Cytochrome P450 3A4 (P08684 whole entry): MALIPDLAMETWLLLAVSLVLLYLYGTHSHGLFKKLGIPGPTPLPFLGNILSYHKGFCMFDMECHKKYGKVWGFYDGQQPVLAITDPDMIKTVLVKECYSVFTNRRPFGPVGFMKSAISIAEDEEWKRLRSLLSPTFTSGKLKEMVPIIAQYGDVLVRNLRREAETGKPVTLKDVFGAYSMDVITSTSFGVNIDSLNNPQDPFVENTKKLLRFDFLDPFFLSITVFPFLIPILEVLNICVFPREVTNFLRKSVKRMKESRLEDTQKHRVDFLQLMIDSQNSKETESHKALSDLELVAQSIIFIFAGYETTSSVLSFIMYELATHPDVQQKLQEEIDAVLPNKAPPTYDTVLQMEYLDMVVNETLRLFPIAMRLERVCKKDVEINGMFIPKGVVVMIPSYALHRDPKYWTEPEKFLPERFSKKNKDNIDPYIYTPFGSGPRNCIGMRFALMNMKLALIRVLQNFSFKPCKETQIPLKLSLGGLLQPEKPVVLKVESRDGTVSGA

Sequence of Tyrosine-protein kinase Fyn (P06241 whole entry): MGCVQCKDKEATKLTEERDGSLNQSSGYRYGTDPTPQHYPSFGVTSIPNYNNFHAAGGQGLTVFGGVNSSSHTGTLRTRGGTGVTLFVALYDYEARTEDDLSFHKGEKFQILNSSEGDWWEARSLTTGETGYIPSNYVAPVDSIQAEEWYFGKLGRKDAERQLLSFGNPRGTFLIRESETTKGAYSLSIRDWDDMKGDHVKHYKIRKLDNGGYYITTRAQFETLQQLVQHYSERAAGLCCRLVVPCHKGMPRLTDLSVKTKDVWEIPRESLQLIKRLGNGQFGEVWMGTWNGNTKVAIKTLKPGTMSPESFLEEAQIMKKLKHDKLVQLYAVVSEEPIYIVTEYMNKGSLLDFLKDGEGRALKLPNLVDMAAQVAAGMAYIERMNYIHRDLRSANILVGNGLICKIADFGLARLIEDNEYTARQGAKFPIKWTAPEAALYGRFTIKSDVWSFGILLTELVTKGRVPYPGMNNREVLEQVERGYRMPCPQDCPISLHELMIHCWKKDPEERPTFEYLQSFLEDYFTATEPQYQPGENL

Cn1c(=O)c2c(ncn2CC(O)CO)n(C)c1=O (configuration not stated) [DYPHYLLINE]
IC50 ([1]; insect cells): Not Active
IC50 [2]: Not Active
IC50 [3]: Not Active
Ki [3]: Not Active
IC50 [4]: Not Active
IC50 [5]: Not Active
Ki [5]: Not Active
IC50 [6]: Not Active
IC50 [7]: Not Active
Ki [7]: Not Active

O=C(O)c1cccnc1Nc1cccc(C(F)(F)F)c1 [NIFLUMIC ACID]
IC50 ([1]; insect cells): Not Active
IC50 [2]: Not Active
IC50 [3]: Not Active
Ki [3]: Not Active
IC50 [4]: Not Active
IC50 [5]: Not Active
Ki [5]: Not Active
IC50 [6]: Not Active
IC50 [7]: Not Active
Ki [7]: Not Active

CC(C)c1cccc(C(C)C)c1O [PROPOFOL]
IC50 ([1]; insect cells): Not Active
IC50 [2]: Not Active
IC50 [3]: Not Active
Ki [3]: Not Active
IC50 [4]: Not Active
IC50 [6]: Not Active

COC(=O)Nc1nc2ccc(C(=O)c3cccs3)cc2[nH]1 [NOCODAZOLE]
IC50 ([1]; insect cells): Not Active
IC50 [2]: Not Active
IC50 [3]: Not Active
Ki [3]: Not Active
IC50 [4]: Not Active
IC50 [5]: Not Active
Ki [5]: Not Active
IC50 [6]: Not Active
IC50 [7]: Not Active
Ki [7]: Not Active

CC(C)NCC(O)COc1cccc2[nH]ccc12 (configuration not stated) [PINDOLOL]
IC50 ([1]; insect cells): Not Active
IC50 [2]: Not Active
IC50 [3]: Not Active
Ki [3]: Not Active
IC50 [4]: Not Active
IC50 [6]: Not Active

CC(=O)[C@@]1(O)CC[C@H]2[C@@H]3CCC4=CC(=O)CC[C@]4(C)[C@H]3CC[C@@]21C [HYDROXYPROGESTERONE]
IC50 ([1]; insect cells): Not Active
IC50 [2]: Not Active
IC50 [3]: Not Active
Ki [3]: Not Active
IC50 [4]: Not Active
IC50 [6]: Not Active

CC(=O)O[C@H]1C(=O)[C@@]2(C)[C@H]([C@H](OC(=O)c3ccccc3)[C@]3(O)C[C@H](OC(=O)[C@H](O)[C@@H](NC(=O)c4ccccc4)c4ccccc4)C(C)=C1C3(C)C)[C@]1(OC(C)=O)CO[C@@H]1C[C@@H]2O [PACLITAXEL]
IC50 ([1]; read-out: IC50): 23.9 µM
IC50 [2]: Not Active
IC50 [3]: Not Active
Ki [3]: Not Active
IC50 [4]: Not Active
IC50 [6]: Not Active
IC50 [7]: Not Active
Ki [7]: Not Active

O=C(N/N=C/c1ccc([N+](=O)[O-])o1)c1cc([N+](=O)[O-])cc([N+](=O)[O-])c1O [NIFURSOL]
IC50 ([1]; insect cells): Not Active
IC50 [2]: Not Active
IC50 [3]: Not Active
Ki [3]: Not Active
IC50 [4]: Not Active
IC50 [6]: Not Active
IC50 [7]: Not Active
Ki [7]: Not Active

Nc1ccn([C@@H]2O[C@H](CO)[C@@H](O)[C@@H]2O)c(=O)n1 [CYTARABINE]
IC50 ([1]; insect cells): Not Active
IC50 [2]: Not Active
IC50 [3]: Not Active
Ki [3]: Not Active
IC50 [4]: Not Active
IC50 [6]: Not Active
IC50 [7]: Not Active
Ki [7]: Not Active

COC1=C(OC)C(=O)C(CCCCCCCCCCO)=C(C)C1=O [IDEBENONE]
IC50 ([1]; insect cells): Not Active
IC50 [2]: Not Active
IC50 [3]: Not Active
Ki [3]: Not Active
IC50 [4]: Not Active
IC50 [6]: Not Active

COc1cc([C@@H]2c3cc4c(cc3[C@@H](O[C@@H]3O[C@@H]5CO[C@@H](C)O[C@H]5[C@H](O)[C@H]3O)[C@H]3COC(=O)[C@H]23)OCO4)cc(OC)c1O [ETOPOSIDE]
IC50 ([1]; insect cells): Not Active
IC50 [2]: Not Active
IC50 [3]: Not Active
Ki [3]: Not Active
IC50 [4]: Not Active
IC50 [6]: Not Active

CC(C)=CCC/C(C)=C/CO [GERANIOL]
IC50 ([1]; insect cells): Not Active
IC50 [2]: Not Active
IC50 [3]: Not Active
Ki [3]: Not Active
IC50 [4]: Not Active
IC50 [6]: Not Active

COc1ccc(C(=O)N2CCCC2=O)cc1
IC50 ([1]; insect cells): Not Active
IC50 [2]: Not Active
IC50 [3]: Not Active
Ki [3]: Not Active
IC50 [4]: Not Active
IC50 [6]: Not Active
IC50 [7]: Not Active
Ki [7]: Not Active

CCCNCC(O)COc1ccccc1C(=O)CCc1ccccc1 (configuration not stated) [PROPAFENONE]
IC50 ([1]; insect cells): Not Active
IC50 [2]: Not Active
IC50 [3]: Not Active
Ki [3]: Not Active
IC50 [4]: Not Active
IC50 [6]: Not Active

NCCCC(O)(P(=O)(O)O)P(=O)(O)O [ALENDRONIC ACID]
IC50 ([1]; insect cells): Not Active
IC50 [2]: Not Active
IC50 [3]: Not Active
Ki [3]: Not Active
IC50 [4]: Not Active
IC50 [6]: Not Active

CC(C)(C)NC(=O)[C@H]1CC[C@H]2[C@@H]3CC[C@H]4NC(=O)C=C[C@]4(C)[C@H]3CC[C@]12C [FINASTERIDE]
IC50 ([1]; insect cells): Not Active
IC50 [2]: Not Active
IC50 [3]: Not Active
Ki [3]: Not Active
IC50 [4]: Not Active
IC50 [6]: Not Active
IC50 [7]: Not Active
Ki [7]: Not Active

CN/C(=N\CCSCc1nc[nH]c1C)NC#N [CIMETIDINE]
IC50 ([1]; insect cells): Not Active
IC50 [2]: Not Active
IC50 [3]: Not Active
Ki [3]: Not Active
IC50 [4]: Not Active
IC50 [5]: Not Active
Ki [5]: Not Active
IC50 [6]: Not Active

COc1ccc2c3c1O[C@H]1C[C@@H](O)C=C[C@@]31CCN(C)C2 [GALANTAMINE]
IC50 ([1]; insect cells): Not Active
IC50 [2]: Not Active
IC50 [3]: Not Active
Ki [3]: Not Active
IC50 [4]: Not Active
IC50 [6]: Not Active

CC[C@H]1CN2CCc3cc(OC)c(OC)cc3[C@@H]2C[C@@H]1C[C@H]1NCCc2cc(OC)c(OC)cc21 [EMETINE]
IC50 ([1]; insect cells): Not Active
IC50 [2]: Not Active
IC50 [3]: Not Active
Ki [3]: Not Active
IC50 [4]: Not Active
IC50 [6]: Not Active
IC50 [7]: Not Active
Ki [7]: Not Active

COc1cc(N)c(Cl)cc1C(=O)NC1CCN(CCCOc2ccc(F)cc2)CC1OC (configuration not stated) [CISAPRIDE]
IC50 ([1]; insect cells): Not Active
IC50 [2]: Not Active
IC50 [3]: Not Active
Ki [3]: Not Active
IC50 [4]: Not Active
IC50 [5]: Not Active
Ki [5]: Not Active
IC50 [6]: Not Active

C[C@@H]1C[C@H]2[C@@H]3CCC4=CC(=O)C=C[C@]4(C)[C@@]3(F)[C@@H](O)C[C@]2(C)[C@@]1(O)C(=O)CO [DEXAMETHASONE]
IC50 ([1]; insect cells): Not Active
IC50 [2]: Not Active
IC50 [3]: Not Active
Ki [3]: Not Active
IC50 [4]: Not Active
IC50 [6]: Not Active

O=C(c1ccccc1C(F)(F)F)N1CCC(Cc2ccccc2)CC1
IC50 ([1]; insect cells): Not Active
IC50 [2]: Not Active
IC50 [3]: Not Active
Ki [3]: Not Active
IC50 [4]: Not Active
IC50 [6]: Not Active
IC50 [7]: Not Active
Ki [7]: Not Active

Cc1c(OCC(F)(F)F)ccnc1C[S+]([O-])c1nc2ccccc2[nH]1 (configuration not stated) [LANSOPRAZOLE]
IC50 ([1]; insect cells): Not Active
IC50 [2]: Not Active
IC50 [3]: Not Active
Ki [3]: Not Active
IC50 [4]: Not Active
IC50 [6]: Not Active
IC50 [7]: Not Active
Ki [7]: Not Active

CN1[C@@H]2CC[C@H]1C[C@@H](OC(=O)C(CO)c1ccccc1)C2 (some centres not stated) [ATROPINE]
IC50 ([1]; insect cells): Not Active
IC50 [2]: Not Active
IC50 [3]: Not Active
Ki [3]: Not Active
IC50 [4]: Not Active
IC50 [6]: Not Active

COc1ccc2[nH]cc(CCNC(C)=O)c2c1 [MELATONIN]
IC50 ([1]; insect cells): Not Active
IC50 [2]: Not Active
IC50 [3]: Not Active
Ki [3]: Not Active
IC50 [4]: Not Active
IC50 [6]: Not Active
IC50 [7]: Not Active
Ki [7]: Not Active

Oc1c(Cl)cc(Cl)c(Cl)c1Cc1c(O)c(Cl)cc(Cl)c1Cl [HEXACHLOROPHENE]
IC50 ([1]; read-out: IC50): 3.48 µM
IC50 [2]: Not Active
IC50 [3]: Not Active
Ki [3]: Not Active
IC50 [4]: Not Active
IC50 [6]: Not Active
IC50 [7]: Not Active
Ki [7]: Not Active
